Laboratory results taken from patent US9284283B2, “Macrocyclic compounds for modulating IL-17” (ENSEMBLE THERAPEUTICS CORPORATION, priority 2012, dated 2016).
pIC50, pKd: −log10 of the molar value.

Legend:
[1] = test system: IL-17A induced secretion of IL-6 in primary human RASF cells; assay: Inhibition of IL17A induced secretion of IL6 in human rheumatoid arthritis synovial fibroblast (RASF) cells; assay type: cell-based; details: Homo sapiens, Fibroblast
Method in brief: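 Primary RASF cells (passage 2-8) stimulated 20 h at 37 °C with rhIL-17A (30 ng/mL) pre-incubated 1 h with compound (final 0.03-25 μM, 0.25% DMSO). Supernatant IL-6 measured by ELISA, normalized to WST1 viability; triplicates.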

[2] = target: T1, recombinant human IL17a (binding to its receptor IL17R) (Homo sapiens, UniProt Q16552); assay: IL-17 competition ELISA I (IL17a coated, IL17R/Fc binding)
T1 construct: purchased R&D Systems 317-ILB (IL17a); 177-IR (IL17R/Fc)
T1 sequence (Q16552 20-155 limits assumed): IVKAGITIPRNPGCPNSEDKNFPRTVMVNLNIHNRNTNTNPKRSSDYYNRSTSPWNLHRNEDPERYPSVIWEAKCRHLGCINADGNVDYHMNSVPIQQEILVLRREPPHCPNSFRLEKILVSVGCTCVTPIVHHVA
Method in brief: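 Plates coated with 20 nM recombinant human IL17a received compound dilutions and 12 nM IL17R/Fc (final) for 30 min at room temperature. Bound receptor was detected with HRP anti-human Fc and TMB, read at 450 nm. IC50 came from a 4-parameter logistic fit between no-competitor and blank controls.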

IL17A = target: T2, IL17A (Homo sapiens, UniProt Q16552); assay: Surface Plasmon Resonance (SPR) analysis of compound interactions with IL17A; details: SPR binding to IL17A
T2 sequence (Q16552 24-155): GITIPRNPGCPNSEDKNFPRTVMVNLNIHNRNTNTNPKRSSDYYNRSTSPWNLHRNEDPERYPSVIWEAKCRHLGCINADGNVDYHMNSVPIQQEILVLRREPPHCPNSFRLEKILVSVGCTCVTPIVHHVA
Method: SPR analysis was carried out with a GE Healthcare (Piscataway, N.J.) Biacore X100 system. Typically, the chip (NTA Biacore Biosensor chip; GE Healthcare BR-1000-34) was first conditioned by injection of 0.35 M EDTA, which also served to remove any immobilized proteins from previous runs. Before immobilization of the recombinant 6-His-tagged IL17, the chip was washed with 0.5 mM nickel chloride in NTA buffer (10 mM HEPES buffer, 0.15 M sodium chloride, 10 μM ethylene diamine tetraacetic acid, 0.005% v/v surfactant P20 (GE Healthcare BR-1000-54)) to form a nickel chelate on the chip. IL17 protein was immobilized onto a NTA chip through its 6-His tag. IL17A was typically injected at 0.25 μM for 60-120 seconds, followed by a stabilization step washing with NTA+0.5% DMSO for 120 seconds or longer.
Five 2-fold or 3-fold serial dilutions of test compound were injected serially onto the chip. All steps were conducted using NTA buffer containing 0.5% v/v dimethylsulfoxide (DMSO). Compounds were diluted from stock solutions of 10 mM concentration in 100% DMSO with NTA buffer to obtain 50 μM solutions in NTA+0.5% DMSO. Subsequent 2× or 3× dilutions were made in NTA+0.5% DMSO. Compound was generally injected for 180 seconds followed by washing the chip in buffer alone for 120 seconds. The rate of refractive index change (RU units/time) and the maximum extend of RU change was measured during the “on” phase of analyte injection, followed by measuring the rate during the “off” phase.
Kinetic parameter fits were conducted using the Biacore SPR Evaluation Program (GE Healthcare) for 1:1 molecular binding fits, after subtracting the baseline average of 2 or more runs in which no analyte was injected. This program then reports the best fit average for the “on” rate (Ka), the “off” rate (Kd) and the dissociation constant (KD) (Chaiken, I et al., Anal Biochem 201, 197-210 (1992)). A separate program in the Biacore SPR Evaluation Program then calculates the best fit for Kd based upon the extent of binding alone (RU units bound) at each concentration of analyte and reports the best fit Kd by best fit to a Lineweaver-Burke plot. Typically, the Kd value calculated through both means agreed within a factor of three.
The presence and activity of IL17 on the NTA chip was routinely confirmed three ways: • 1) An increase in response units (RU) upon immobilization confirms that the IL17 was immobilized on the chip; • 2) Anti-IL17 was also injected on the chip to confirm the presence of IL17; and • 3) IL17R was injected onto the chip to confirm that the immobilized IL17 retained its binding activity for its receptor. Negative controls to access specificity for compound binding were conducted by immobilizing unrelated, but his-tagged, proteins (such as cyclophilin D) and conducting the same analysis as done with IL17A.

[3] = target: T3, biotinylated human IL-17 (binding to IL17R/Fc) (Homo sapiens, UniProt Q16552); assay: IL-17 competition ELISA II (captured IL17R/Fc, biotinylated IL-17)
T3 construct: purchased R&D Systems 317-ILB (IL-17, biotinylated); 177-IR (IL17R/Fc)
T3 sequence (Q16552 20-155 limits assumed): T1 sequence (Q16552 20-155 limits assumed)
Method in brief: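 Anti-human IgG-coated plates captured IL17R/Fc (10 nM), then compound (5-fold dilutions from 1 μM) and biotinylated human IL-17 (20 nM stock) were added for 30 min at room temperature in PBST. Bound IL-17 detected by streptavidin-HRP/TMB at 450 nm. IC50 from 4-parameter logistic fit between no-competitor and blank controls.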

Row | Compound | pIC50 [2] | pKd (IL17A) | pIC50 [3] | pIC50 [1]
1 | O=C1CNC(=O)[C@@H](Cc2ccc(NC(=O)[C@@H](NC(=O)Cc3ccc(O)cc3)C3CCCCC3)cc2)NC(=O)CC2(CCCC2)CC(=O)NCCCCCN1 [Compound 192] | > 7.00 | > 7.00 |  | 5.00 to 6.00
2 | O=C1CNC(=O)[C@@H](Cc2ccc(NC(=O)[C@H](Cc3csc4ccccc34)NC(=O)Cc3ccccc3)cc2)NC(=O)CC2(CCCC2)CC(=O)NCCCCCN1 [Compound 233] | 6.00 to 7.00 | > 7.00 |  | 
3 | O=C1CNC(=O)[C@@H](Cc2ccc(NC(=O)[C@H](Cc3ccccc3Cl)NC(=O)c3ccccn3)cc2)NC(=O)CC2(CCCC2)CC(=O)NCCCCCN1 [Compound 195] | 6.00 to 7.00 | 6.00 to 7.00 | > 7.00 | 
4 | O=C1CNC(=O)[C@@H](Cc2ccc(NC(=O)[C@H](Cc3ccccc3Cl)NC(=O)c3cncnc3)cc2)NC(=O)CC2(CCCC2)CC(=O)NCCCCCN1 [Compound 201] | 6.00 to 7.00 | > 7.00 |  | < 5.00
5 | O=C1CNC(=O)[C@@H](Cc2ccc(NC(=O)[C@H](Cc3ccc(Cl)c(Cl)c3)NC(=O)Cc3ccccc3)cc2)NC(=O)CC2(CCCC2)CC(=O)OCCCCCN1 [Compound 224] | 5.00 to 6.00 | 6.00 to 7.00 |  | 
6 | O=C1CNC(=O)[C@@H](Cc2ccc(NC(=O)[C@H](Cc3cccs3)NC(=O)Cc3ccccc3)cc2)NC(=O)CC2(CCCC2)CC(=O)NCCCCCN1 [Compound 228] | > 7.00 | > 7.00 |  | 
7 | O=C1CCCC(=O)N[C@H](Cc2ccc(NC(=O)[C@H](Cc3ccccc3Cl)NC(=O)Cc3ccccc3)cc2)C(=O)NCC(=O)NCCCCCN1 [Compound 221] | 5.00 to 6.00 | 6.00 to 7.00 |  | 
8 | O=C1CNC(=O)[C@@H](Cc2ccc(NC(=O)[C@H](Cc3ccc(Br)s3)NC(=O)Cc3ccccc3)cc2)NC(=O)CC2(CCCC2)CC(=O)OCCCCCN1 [Compound 225] | 5.00 to 6.00 | 6.00 to 7.00 |  | 
9 | O=C1CNC(=O)[C@@H](Cc2ccc(NC(=O)[C@H](Cc3ccco3)NC(=O)Cc3ccccc3)cc2)NC(=O)CC2(CCCC2)CC(=O)NCCCCCN1 [Compound 230] | > 7.00 | > 7.00 |  | 
10 | O=C1CNC(=O)[C@@H](Cc2ccc(NC(=O)[C@H](Cc3ccccc3Cl)NC(=O)c3ccc(Cl)cc3)cc2)NC(=O)CC2(CCCC2)CC(=O)NCCCCCN1 [Compound 205] | > 7.00 | > 7.00 |  | 
11 | O=C1CNC(=O)[C@@H](Cc2ccc(NC(=O)[C@H](Cc3ccccc3Cl)NC(=O)Cc3ccccc3)cc2)NC(=O)CC2(CCCC2)CC(=O)NCCOCCN1 [Compound 209] | > 7.00 | > 7.00 |  | 5.00 to 6.00
12 | O=C1CCNC(=O)[C@@H](Cc2ccc(NC(=O)[C@H](Cc3ccccc3Cl)NC(=O)Cc3ccccc3)cc2)NC(=O)CC2(CCCC2)CC(=O)NCCCCN1 [Compound 164] | > 7.00 | > 7.00 |  | 
13 | O=C1CNC(=O)[C@@H](Cc2ccc(NC(=O)[C@H](Cc3ccccc3Cl)NC(=O)c3ccccc3F)cc2)NC(=O)CC2(CCCC2)CC(=O)NCCCCCN1 [Compound 203] | > 7.00 | > 7.00 |  | 
14 | O=C1CNC(=O)[C@@H](Cc2ccc(NC(=O)[C@H](Cc3ccccc3Cl)NC(=O)c3ccccc3Cl)cc2)NC(=O)CC2(CCCC2)CC(=O)NCCCCCN1 [Compound 204] | 6.00 to 7.00 | > 7.00 |  | 
15 | CC[C@H](C)[C@H](NC(=O)Cc1ccccc1)C(=O)Nc1ccc(C[C@H]2NC(=O)CC3(CCCC3)CC(=O)N[C@H](C(=O)OC)CCCCNC(=O)CCCNC2=O)cc1 [Compound 122] | 5.00 to 6.00 | 5.00 to 6.00 |  | 5.00 to 6.00
16 | CC(C)(C)C(=O)N[C@@H](Cc1ccccc1Cl)C(=O)Nc1ccc(C[C@H]2NC(=O)CC3(CCCC3)CC(=O)NCCCCCNC(=O)CNC2=O)cc1 [Compound 206] | > 7.00 | > 7.00 |  | 5.00 to 6.00
17 | O=C1CNC(=O)[C@@H](Cc2ccc(NC(=O)[C@H](Cc3ccc(Cl)cc3)NC(=O)Cc3ccccc3)cc2)NC(=O)CC2(CCCC2)CC(=O)OCCCCCN1 [Compound 213] | < 5.00 | 6.00 to 7.00 |  | 

Continued, in another order:

Row | pIC50 [2] | pKd (IL17A) | pIC50 [3] | Compound | pIC50 [1]
18 | 6.00 to 7.00 | > 7.00 |  | CC(=O)N[C@@H](Cc1ccccc1Cl)C(=O)Nc1ccc(C[C@H]2NC(=O)CC3(CCCC3)CC(=O)N(CCO)CCCCCNC(=O)CNC2=O)cc1 [Compound 169] | < 5.00
19 |  | > 7.00 |  | O=C1CNC(=O)[C@@H](Cc2ccc(NC(=O)[C@H](Cc3ccccc3Cl)NC(=O)Cc3ccccc3)cc2)NC(=O)CC2(CCCC2)CC(=O)N(CCO)CCCCCN1 [Compound 168] | 5.00 to 6.00
20 | 6.00 to 7.00 | > 7.00 |  | O=C1CNC(=O)[C@@H](Cc2ccc(NC(=O)[C@H](Cc3ccccc3Cl)NC(=O)c3ccc(F)cc3)cc2)NC(=O)CC2(CCCC2)CC(=O)NCCCCCN1 [Compound 227] | 5.00 to 6.00
21 | > 7.00 | > 7.00 |  | O=C1CNC(=O)[C@@H](Cc2ccc(NC(=O)[C@H](Cc3ccccc3Br)NC(=O)Cc3ccc(O)cc3)cc2)NC(=O)CC2(CCCC2)CC(=O)NCCCCCN1 [Compound 211] | 5.00 to 6.00
22 | > 7.00 | > 7.00 |  | O=C1CNC(=O)[C@@H](Cc2ccc(NC(=O)[C@H](Cc3ccccc3Cl)NC(=O)Cc3ccccc3O)cc2)NC(=O)CC2(CCCC2)CC(=O)NCCCCCN1 [Compound 216] | 5.00 to 6.00
23 | 6.00 to 7.00 | > 7.00 |  | CN1CC(=O)NCCCCCNC(=O)CC2(CCCC2)CC(=O)N[C@H](Cc2ccc(NC(=O)[C@H](Cc3ccccc3Cl)NC(=O)Cc3ccc(O)cc3)cc2)C1=O [Compound 193] | 
24 | > 7.00 | > 7.00 |  | O=C1CNC(=O)[C@@H](Cc2ccc(NC(=O)[C@H](Cc3ccccc3Cl)NC(=O)Cc3ccncc3)cc2)NC(=O)CC2(CCCC2)CC(=O)NCCCCCN1 [Compound 202] | 
25 | > 7.00 | > 7.00 |  | CC(=O)N[C@@H](Cc1ccccc1Cl)C(=O)Nc1ccc(C[C@H]2NC(=O)CC3(CCCC3)CC(=O)NCCCCCNC(=O)CNC2=O)cc1 [Compound 153] | 5.00 to 6.00
26 | > 7.00 | > 7.00 |  | O=C1CNC(=O)[C@@H](Cc2ccc(NC(=O)[C@H](Cc3ccccc3Cl)NC(=O)Cc3ccccc3)cc2)NC(=O)CC2(CCCCC2)CC(=O)NCCCCCN1 [Compound 223] | 
